In patent publication US6706663B2, “Herbicidal 3-heterocyclic substituted benzisothiazole and benzisoxazole compounds” (Wyeth, priority 2000, dated 2004):

What was measured:
[1] = system: IPOHE (Ipomoea hederacea); assay: Preemergence herbicidal evaluation; format: in vivo, (L.) Jacq.; conditions: preemergence, rated 4-5 weeks after treatment
SETVI (Setaria viridis) [2] = assay: Preemergence herbicidal evaluation; format: in vivo, (L.) Beau; conditions: preemergence, rated 4-5 weeks after treatment
Summary of the method: (§1)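 Visual 0–9 rating versus control (stand, vigor, malformation, size, chlorosis, overall appearance), scored four to five weeks post-treatment. Preemergence spray of aqueous acetone solution onto freshly seeded soil cups; plants grown under conventional greenhouse care.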

[3] = system: ECHCG (Echinochloa crus-galli); assay: Preemergence herbicidal evaluation; format: in vivo, (L.) Beau; conditions: preemergence, rated 4-5 weeks after treatment
Summary of the method: as §1

[4] = system: ECHCG (Echinochloa crus-galli); assay: Postemergence herbicidal evaluation; format: in vivo, (L.) Beau
Summary of the method: (§2)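 Seedlings grown about two weeks in flats, sprayed, then kept under standard greenhouse care. Rated visually 4–5 weeks after treatment on a 0–9 scale (stand, vigour, malformation, size, chlorosis, overall appearance) relative to untreated control; repeat tests averaged.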

CYPIR (Cyperus iria) = assay: Flooded paddy, preemergence weed control; format: in vivo; conditions: rated 3-4 weeks after treatment, 0-9 rating scale
Summary of the method: (§3)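 Under paddy conditions, seeds or vegetative propagules go into the top 0.5 cm of silt loam; the soil is then flooded to 1.5–3 cm and kept so. Treated pots stay in a greenhouse; response is rated 0-9 visually versus control.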

[5] = system: MOOVA (Monochoria vaginalis); assay: Flooded paddy, preemergence weed control; format: in vivo, Presl.; conditions: rated 3-4 weeks after treatment, 0-9 rating scale
Summary of the method: as §3

GALAP (Galium aparine) = assay: Postemergence herbicidal evaluation; format: in vivo
Summary of the method: as §2

[6] = system: GLXMAW (Soybean, Williams); assay: Postemergence herbicidal evaluation; format: in vivo, Glycine max, (L.) Merr. cv Williams
Summary of the method: as §2

[7] = system: SAGPY (Sagittaria pygmaea); assay: Flooded paddy, preemergence weed control; format: in vivo, L.; conditions: rated 3-4 weeks after treatment, 0-9 rating scale
Summary of the method: as §3

[8] = system: AMBEL (Ambrosia artemisifolia); assay: Preemergence herbicidal evaluation; format: in vivo, L.; conditions: preemergence, rated 4-5 weeks after treatment
Summary of the method: as §1

[9] = system: CHEAL (Chenopodium album); assay: Preemergence herbicidal evaluation; format: in vivo, L.; conditions: preemergence, rated 4-5 weeks after treatment
Summary of the method: as §1

[10] = system: CASOB (Cassia obtusifolia); assay: Preemergence herbicidal evaluation; format: in vivo, L.; conditions: preemergence, rated 4-5 weeks after treatment
Summary of the method: as §1

[11] = system: ECHORC (Echinochloa oryzoides); assay: Flooded paddy, preemergence weed control; format: in vivo, Echinochloa oryzoides (Ard.) Fritsch.; conditions: rated 3-4 weeks after treatment, 0-9 rating scale
Summary of the method: as §3

[12] = system: IPOHE (Ipomoea hederacea); assay: Postemergence herbicidal evaluation; format: in vivo, (L.) Jacq.
Summary of the method: as §2

ORYSAT (Rice, Tebonnet) [13] = assay: Flooded paddy, post-transplant rice tolerance; format: in vivo, Oryza sativa, (L.) Tebonnet; conditions: flooded paddy, post-transplant rice, rated 3-4 weeks after treatment, 0-9 rating scale
Summary of the method: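 Visual 0-9 rating against a control, covering stand, vigor, malformation, size, chlorosis and overall appearance. Treatment was applied after transplanting paired ten-day-old seedlings into flooded silt loam, with water kept 1.5 to 3 cm deep on greenhouse benches.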

ORYSAT (Rice, Tebonnet) [14] = assay: Postemergence herbicidal evaluation; format: in vivo, Oryza sativa, (L.) Tebonnet
Summary of the method: as §2

[15] = system: ABUTH (Abutilon theophrasti); assay: Postemergence herbicidal evaluation; format: in vivo, Medic.
Summary of the method: as §2

ZEAMX (Corn, Field) = assay: Postemergence herbicidal evaluation; format: in vivo, Zea mays, L.
Summary of the method: as §2

ORYSAT (Rice, Tebonnet) [16] = assay: Preemergence herbicidal evaluation; format: in vivo, Oryza sativa, (L.) Tebonnet; conditions: preemergence, rated 4-5 weeks after treatment
SETVI (Setaria viridis) [17] = assay: Postemergence herbicidal evaluation; format: in vivo, (L.) Beau
Summary of the method: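 Visual injury score (0-9: stand, vigor, malformation, size, chlorosis, overall appearance vs untreated control) taken four to five weeks post-spray. Two-week-old seedlings received about 0.0040 to 1.000 kg/ha active compound in acetone/water with 0.5% TWEEN 20.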

For CCOC(=O)C1CS[C@H](c2nsc3ccc(-n4c(=O)cc(C(F)(F)F)n(C)c4=O)cc23)N1 (stereo partly drawn) [Compound 2, ethyl (R)-2-[5-[3,6-dihydro-3-methyl-2,6-dioxo-4-(trifluoromethyl)-1(2H)-pyrimidinyl]-1,2-benzisothiazol-3-yl]-4-thiazolidinecarboxylate], the “IPOHE preemergence herbicidal rating” value ([1]; Rate 0.0620 kg/ha) was 9.0, the “IPOHE preemergence herbicidal rating” value ([1]; Rate 0.1250 kg/ha) was 9.0 and the “IPOHE preemergence herbicidal rating” value ([1]; Rate 0.2500 kg/ha) was 9.0. The “SETVI preemergence herbicidal rating” value (SETVI (Setaria viridis) [2]; Rate 0.0620 kg/ha) was 8.0, the “SETVI preemergence herbicidal rating” value (SETVI (Setaria viridis) [2]; Rate 0.1250 kg/ha) was 8.0 and the “SETVI preemergence herbicidal rating” value (SETVI (Setaria viridis) [2]; Rate 0.2500 kg/ha) was 9.0. The “ECHCG preemergence herbicidal rating” value ([3]; Rate 0.0620 kg/ha) was 2.5, the “ECHCG preemergence herbicidal rating” value ([3]; Rate 0.1250 kg/ha) was 6.0 and the “ECHCG preemergence herbicidal rating” value ([3]; Rate 0.2500 kg/ha) was 8.0. For the same compound, the “Postemergence herbicidal rating, ECHCG” value ([4]; rate 0.0320 kg/ha) was 3.0, the “Postemergence herbicidal rating, ECHCG” value ([4]; rate 0.0620 kg/ha) was 4.0 and the “herbicidal rating, CYPIR” value (CYPIR (Cyperus iria); rate 0.0320 kg/ha) was 0.0. For the same compound, the “herbicidal rating, CYPIR” value (CYPIR (Cyperus iria); rate 0.1250 kg/ha) was 2.0, the “herbicidal rating, MOOVA” value ([5]; rate 0.0320 kg/ha) was 6.0 and the “herbicidal rating, MOOVA” value ([5]; rate 0.1250 kg/ha) was 9.0. The “Postemergence herbicidal rating, GALAP” value (GALAP (Galium aparine); rate 0.0320 kg/ha) was 5.0, the “Postemergence herbicidal rating, GALAP” value (GALAP (Galium aparine); rate 0.0620 kg/ha) was 6.0 and the “Postemergence herbicidal rating, GLXMAW” value ([6]; rate 0.0320 kg/ha) was 7.0. For the same compound, the “Postemergence herbicidal rating, GLXMAW” value ([6]; rate 0.0620 kg/ha) was 7.5, the “herbicidal rating, SAGPY” value ([7]; rate 0.0320 kg/ha) was 0.0 and the “herbicidal rating, SAGPY” value ([7]; rate 0.1250 kg/ha) was 0.0. The “AMBEL preemergence herbicidal rating” value ([8]; Rate 0.0620 kg/ha) was 7.0, the “AMBEL preemergence herbicidal rating” value ([8]; Rate 0.1250 kg/ha) was 8.0 and the “AMBEL preemergence herbicidal rating” value ([8]; Rate 0.2500 kg/ha) was 9.0. The “CHEAL preemergence herbicidal rating” value ([9]; Rate 0.0620 kg/ha) was 9.0, the “CHEAL preemergence herbicidal rating” value ([9]; Rate 0.1250 kg/ha) was 9.0 and the “CHEAL preemergence herbicidal rating” value ([9]; Rate 0.2500 kg/ha) was 9.0. For the same compound, the “CASOB preemergence herbicidal rating” value ([10]; Rate 0.0620 kg/ha) was 5.0, the “CASOB preemergence herbicidal rating” value ([10]; Rate 0.1250 kg/ha) was 7.5 and the “CASOB preemergence herbicidal rating” value ([10]; Rate 0.2500 kg/ha) was 7.0. The “herbicidal rating, ECHORC” value ([11]; rate 0.0320 kg/ha) was 0.0, the “herbicidal rating, ECHORC” value ([11]; rate 0.1250 kg/ha) was 2.0 and the “Postemergence herbicidal rating, IPOHE” value ([12]; rate 0.0320 kg/ha) was 9.0. For the same compound, the “Postemergence herbicidal rating, IPOHE” value ([12]; rate 0.0620 kg/ha) was 9.0, the “herbicidal rating, ORYSAT (rice tolerance)” value (ORYSAT (Rice, Tebonnet) [13]; rate 0.0320 kg/ha) was 1.0 and the “herbicidal rating, ORYSAT (rice tolerance)” value (ORYSAT (Rice, Tebonnet) [13]; rate 0.1250 kg/ha) was 4.0. The “Postemergence herbicidal rating, ORYSAT” value (ORYSAT (Rice, Tebonnet) [14]; rate 0.0320 kg/ha) was 5.0, the “Postemergence herbicidal rating, ORYSAT” value (ORYSAT (Rice, Tebonnet) [14]; rate 0.0620 kg/ha) was 6.5 and the “Postemergence herbicidal rating, ABUTH” value ([15]; rate 0.0320 kg/ha) was 9.0. For the same compound, the “Postemergence herbicidal rating, ABUTH” value ([15]; rate 0.0620 kg/ha) was 9.0, the “Postemergence herbicidal rating, ZEAMX” value (ZEAMX (Corn, Field); rate 0.0320 kg/ha) was 7.0 and the “Postemergence herbicidal rating, ZEAMX” value (ZEAMX (Corn, Field); rate 0.0620 kg/ha) was 7.0. The “ORYSAT preemergence herbicidal rating” value (ORYSAT (Rice, Tebonnet) [16]; Rate 0.0620 kg/ha) was 3.0, the “ORYSAT preemergence herbicidal rating” value (ORYSAT (Rice, Tebonnet) [16]; Rate 0.1250 kg/ha) was 6.0 and the “ORYSAT preemergence herbicidal rating” value (ORYSAT (Rice, Tebonnet) [16]; Rate 0.2500 kg/ha) was 7.0. The “Postemergence herbicidal rating, SETVI” value (SETVI (Setaria viridis) [17]; rate 0.0320 kg/ha) was 6.0 and the “Postemergence herbicidal rating, SETVI” value (SETVI (Setaria viridis) [17]; rate 0.0620 kg/ha) was 7.0.
